Laboratory results from PMC7337056, “Structural and biochemical characterization of the pleckstrin homology domain of the RhoGEF P-Rex2 and its regulation by PIP3” (Journal of Structural Biology: X, 2018).
Where a chain is given by its changes, count along the chain named.

Experiments:
Format in all cases: binding
P-Rex1 PH domain [1] = target: T1, P-Rex1 PH domain (Homo sapiens, UniProt Q8TCU6, K368A); assay: differential scanning fluorimetry (SYPRO orange); details: 50 mM HEPES pH 8, 150 mM NaCl, 2 mM DTT; 1 mM ligand
T1 construct: gene PREX1; PH domain, residues 245-408; 10xHis-MBP tag removed with TEV; E. coli Rosetta (DE3) pLysS
T1 sequence (Q8TCU6 245-408 K368A): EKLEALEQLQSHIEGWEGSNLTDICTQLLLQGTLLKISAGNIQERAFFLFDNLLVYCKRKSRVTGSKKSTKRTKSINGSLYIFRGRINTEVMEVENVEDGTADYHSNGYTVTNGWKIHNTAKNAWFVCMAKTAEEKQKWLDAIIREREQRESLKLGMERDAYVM

P-Rex1 PH domain [2] = target: T2, P-Rex1 PH domain (Homo sapiens, UniProt Q8TCU6, K280A); assay: differential scanning fluorimetry (SYPRO orange); details: 50 mM HEPES pH 8, 150 mM NaCl, 2 mM DTT; 1 mM ligand
T2 construct: gene PREX1; PH domain, residues 245-408; 10xHis-MBP tag removed with TEV; E. coli Rosetta (DE3) pLysS
T2 sequence (Q8TCU6 245-408 K280A): as the sequence (Q8TCU6 245-408 K368A) above, with K36A, A124K counted along it

P-Rex2 PH domain [3] = target: T3, P-Rex2 PH domain (Homo sapiens, UniProt Q70Z35, K254A); assay: differential scanning fluorimetry (SYPRO orange); details: 50 mM HEPES pH 8, 150 mM NaCl, 2 mM DTT; 1 mM ligand
T3 construct: gene PREX2; PH domain, residues 219-364 for assays (219-377 for crystal 6BNM); 10xHis-MBP tag removed with TEV; E. coli Rosetta (DE3) pLysS
T3 sequence (Q70Z35 219-364 K254A): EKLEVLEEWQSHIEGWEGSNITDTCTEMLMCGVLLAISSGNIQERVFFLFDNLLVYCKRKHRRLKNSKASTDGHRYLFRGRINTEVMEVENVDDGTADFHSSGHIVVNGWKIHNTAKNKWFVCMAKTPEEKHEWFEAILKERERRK

P-Rex2 PH domain [4] = target: T4, P-Rex2 PH domain (Homo sapiens, UniProt Q70Z35); assay: isothermal titration calorimetry; details: 20 mM HEPES pH 8, 150 mM NaCl, 25 °C
T4 construct: gene PREX2; PH domain, residues 219-364 for assays (219-377 for crystal 6BNM); 10xHis-MBP tag removed with TEV; E. coli Rosetta (DE3) pLysS
T4 sequence (Q70Z35 219-364): T3 sequence (Q70Z35 219-364 K254A) with A36K

P-Rex2 PH domain [5] = target: T5, P-Rex2 PH domain (Homo sapiens, UniProt Q70Z35, K337A); assay: differential scanning fluorimetry (SYPRO orange); details: 50 mM HEPES pH 8, 150 mM NaCl, 2 mM DTT; 1 mM ligand
T5 construct: gene PREX2; PH domain, residues 219-364 for assays (219-377 for crystal 6BNM); 10xHis-MBP tag removed with TEV; E. coli Rosetta (DE3) pLysS
T5 sequence (Q70Z35 219-364 K337A): T3 sequence (Q70Z35 219-364 K254A) with A36K, K119A

P-Rex2 PH domain [6] = target: T4, P-Rex2 PH domain; assay: differential scanning fluorimetry (SYPRO orange)

O=P(O)(O)OC1[C@H](O)[C@H](OP(=O)(O)O)C(OP(=O)(O)O)[C@H](OP(=O)(O)O)[C@H]1O (stereo partly drawn) [Ins(1,3,4,5)P4, D-myo-Inositol-1,3,4,5-tetraphosphate]
ΔTm at 1 mM (P-Rex1 PH domain [1]): P-Rex1 variants display the same trends in binding deficiency | ΔTm at 1 mM (P-Rex1 PH domain [2]): P-Rex1 variants display the same trends in binding deficiency | ΔTm at 1 mM (P-Rex2 PH domain [3]): mutation of any one of the PIP3-binding residues drastically reduces the temperature shift | Kd (P-Rex2 PH domain [4]): 240 ± 140 nM | ΔTm at 1 mM (P-Rex2 PH domain [5]): mutation of any one of the PIP3-binding residues drastically reduces the temperature shift | ΔTm at 1000 µM (P-Rex2 PH domain [6]): 11 °C
